Among the data in PubChem BioAssay (NCI) are TGI values, retold here.

Among the test systems are IGROV1 ovarian; MCF7 breast; SK-MEL-28 melanoma; UACC-257 melanoma; HOP-92 NSCLC; DU-145 prostate; OVCAR-8 ovarian; HT29 colon; K-562 leukemia; SF-539 CNS; COLO 205 colon; LOX IMVI melanoma; CAKI-1 renal; SF-295 CNS; MDA-N; M14 melanoma; BT-549 breast; CCRF-CEM leukemia; OVCAR-4 ovarian; MDA-MB-231 breast.
Common to all, as to assay: NCI-60 cell line screen, 48 h

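All cell lines were grown in 96-well plates and treated with compound for 48 hours. TGI: total growth inhibition.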

`Oc1[nH]c2ccccc2c1C1=Nc2ccccc2/C1=N\OCCOC1OCC(O)C(O)C1O` (stereo not given): the TGI with IGROV1 ovarian, with MCF7 breast, with SK-MEL-28 melanoma, in the assay on UACC-257 melanoma, in the assay with HOP-92 NSCLC and in the assay on DU-145 prostate was above 100 µM in each case. The TGI in the assay on OVCAR-8 ovarian, with HT29 colon, in the assay on K-562 leukemia, in the assay on SF-539 CNS, in the assay with COLO 205 colon and in the assay on LOX IMVI melanoma was above 100 µM each time. Moreover, the TGI in the assay with CAKI-1 renal, with SF-295 CNS, in the assay with MDA-N, with M14 melanoma, with BT-549 breast and in the assay with CCRF-CEM leukemia was above 100 µM each time. For the same compound, the TGI in the assay on OVCAR-4 ovarian and in the assay with MDA-MB-231 breast was above 100 µM in each case.

In the case of `Nc1[nH]c(=O)nc2snnc12`, the TGI with IGROV1 ovarian is above 100 µM; in the assay on MCF7 breast, above 100 µM; with SK-MEL-28 melanoma, 96.9 µM; with UACC-257 melanoma, above 100 µM; with HOP-92 NSCLC it was above 100 µM; with DU-145 prostate, above 100 µM. Moreover, the TGI in the assay with OVCAR-8 ovarian was above 100 µM; with HT29 colon it was above 100 µM; in the assay with K-562 leukemia it was above 39.7 µM; with SF-539 CNS, above 100 µM; in the assay with COLO 205 colon it was above 100 µM; in the assay on LOX IMVI melanoma, 65.2 µM. Further, the TGI is above 28.8 µM with CAKI-1 renal; above 100 µM with SF-295 CNS; above 100 µM with MDA-N; above 100 µM in the assay on M14 melanoma; above 100 µM in the assay with BT-549 breast; above 100 µM in the assay with CCRF-CEM leukemia. Further, the TGI with OVCAR-4 ovarian and in the assay on MDA-MB-231 breast was above 100 µM in each case.

`C=C1C[C@@H](O)[C@@H](Br)C(C)(C)[C@@]12C=CC(=O)CC2`: the TGI was above 48.3 µM in the assay on IGROV1 ovarian; above 100 µM in the assay with MCF7 breast; above 100 µM in the assay on SK-MEL-28 melanoma; above 100 µM in the assay on UACC-257 melanoma; above 100 µM with HOP-92 NSCLC; above 100 µM with DU-145 prostate. The TGI with OVCAR-8 ovarian was above 100 µM; in the assay on HT29 colon it was above 100 µM; in the assay on K-562 leukemia it was above 100 µM; with SF-539 CNS it was above 100 µM; in the assay on COLO 205 colon, 4.34 µM; in the assay with LOX IMVI melanoma it was above 100 µM. In addition, the TGI in the assay with CAKI-1 renal, with SF-295 CNS, in the assay on MDA-N, in the assay with M14 melanoma, in the assay on BT-549 breast and in the assay on CCRF-CEM leukemia was above 100 µM in each case. The TGI in the assay on OVCAR-4 ovarian and with MDA-MB-231 breast was above 100 µM each time.

As to `O=C1CCCC/C1=C\c1ccc([N+](=O)[O-])cc1`, the TGI in the assay on IGROV1 ovarian was 32.1 µM; in the assay on MCF7 breast, 37.4 µM; in the assay on SK-MEL-28 melanoma it was 23.5 µM; in the assay with UACC-257 melanoma, 38.5 µM; in the assay on HOP-92 NSCLC, 52.1 µM; in the assay with DU-145 prostate, above 100 µM. Besides, the TGI with OVCAR-8 ovarian is 37.1 µM; in the assay with HT29 colon, above 100 µM; with K-562 leukemia, 32.1 µM; with SF-539 CNS, 43.3 µM; with COLO 205 colon, 32.3 µM; in the assay with LOX IMVI melanoma, 3.74 µM. The TGI in the assay on CAKI-1 renal is 35.7 µM; in the assay with SF-295 CNS it was 51 µM; with MDA-N, 41.5 µM; with M14 melanoma it was 40.8 µM; in the assay on BT-549 breast it was 59.3 µM; with CCRF-CEM leukemia, 30.4 µM. For the same compound, the TGI with OVCAR-4 ovarian stood at 53.1 µM; with MDA-MB-231 breast it was 52.6 µM.

As for `C[C@@H](C[C@H]1OC(C)(C)O[C@@H]1C(C)(C)O)[C@H]1CC=C2[C@]3(C)[C@H](O)C[C@H]4C(C)(C)[C@H](O)CC[C@]4(C)[C@H]3CC[C@]21C`, the TGI came out at 21.1 µM with IGROV1 ovarian; 12.8 µM with MCF7 breast; 18.6 µM in the assay with SK-MEL-28 melanoma; 20.4 µM with UACC-257 melanoma; 13.6 µM in the assay on HOP-92 NSCLC; 28.7 µM in the assay on DU-145 prostate. In addition, the TGI stood at 27.1 µM in the assay on OVCAR-8 ovarian; 8.23 µM with HT29 colon; 13.9 µM in the assay with K-562 leukemia; 17.2 µM in the assay on SF-539 CNS; 10.5 µM with COLO 205 colon; 17.3 µM in the assay with LOX IMVI melanoma. Further, the TGI with CAKI-1 renal amounted to 19.5 µM; in the assay with SF-295 CNS it was 18.2 µM; in the assay on MDA-N, 16.8 µM; with M14 melanoma, 17.6 µM; with BT-549 breast it was 22.4 µM; in the assay on CCRF-CEM leukemia, 14.1 µM. In addition, the figures for the TGI in the assay on OVCAR-4 ovarian and in the assay with MDA-MB-231 breast were 26.2 µM and 18.7 µM, respectively.

On to `COc1ccc2oc(S(=O)(=O)N3CC(CCl)c4ccc(N)cc43)cc2c1` (stereo not given), for which the TGI in the assay on IGROV1 ovarian was above 34.1 µM; in the assay with MCF7 breast, above 58.6 µM; in the assay with SK-MEL-28 melanoma, above 100 µM; in the assay with UACC-257 melanoma it was above 100 µM; in the assay on HOP-92 NSCLC, above 64.7 µM; in the assay with DU-145 prostate, 0.515 µM. Moreover, the TGI in the assay on OVCAR-8 ovarian is above 28.3 µM; with HT29 colon it was 10.1 µM; in the assay with K-562 leukemia it was above 60.1 µM; in the assay with SF-539 CNS, above 41.4 µM; in the assay on COLO 205 colon, 14.9 µM; in the assay with LOX IMVI melanoma, above 53.1 µM. In addition, the TGI in the assay with CAKI-1 renal is above 86.3 µM; in the assay with SF-295 CNS, above 100 µM; in the assay on MDA-N it was above 100 µM; in the assay on M14 melanoma, above 100 µM; with BT-549 breast it was above 55.8 µM; with CCRF-CEM leukemia, 12.7 µM. Also, the TGI in the assay with OVCAR-4 ovarian was above 100 µM; in the assay on MDA-MB-231 breast, above 24.9 µM.

For the compound `Cc1nc2ccc(S(=O)(=O)NS(=O)(=O)c3ccc(-c4ccccc4)cc3)cc2c(=O)n1NS(=O)(=O)c1ccc(-c2ccccc2)cc1`, the TGI with IGROV1 ovarian, in the assay on MCF7 breast, in the assay with SK-MEL-28 melanoma, with UACC-257 melanoma, with HOP-92 NSCLC and with DU-145 prostate was above 100 µM each time. Moreover, the TGI with OVCAR-8 ovarian, in the assay with HT29 colon, with K-562 leukemia, with SF-539 CNS, with COLO 205 colon and with LOX IMVI melanoma was above 100 µM each time. For the same compound, the TGI in the assay on CAKI-1 renal, in the assay on SF-295 CNS, in the assay on MDA-N, in the assay on M14 melanoma, with BT-549 breast and in the assay on CCRF-CEM leukemia was above 100 µM throughout. In addition, the TGI in the assay with OVCAR-4 ovarian and with MDA-MB-231 breast was above 100 µM each time.

Take `O=C1/C(=C\c2ccc(Br)cc2)CCCc2ccccc21`: the TGI with IGROV1 ovarian is 34.4 µM; with MCF7 breast, above 100 µM; in the assay on SK-MEL-28 melanoma, 40.9 µM; in the assay on UACC-257 melanoma, 39.6 µM; in the assay with HOP-92 NSCLC, 39.8 µM; in the assay with DU-145 prostate it was 49.4 µM. The TGI was 28.2 µM in the assay on OVCAR-8 ovarian; 30.4 µM with HT29 colon; above 100 µM in the assay with K-562 leukemia; 43.1 µM in the assay on SF-539 CNS; 31.8 µM in the assay with COLO 205 colon; 29.9 µM in the assay with LOX IMVI melanoma. Besides, the TGI is 68.7 µM in the assay on CAKI-1 renal; 52.9 µM with SF-295 CNS; 47 µM with MDA-N; above 100 µM in the assay with M14 melanoma; 55.9 µM in the assay with BT-549 breast; 53 µM in the assay with CCRF-CEM leukemia. In addition, the TGI in the assay with OVCAR-4 ovarian stood at 26.3 µM; in the assay with MDA-MB-231 breast, 42 µM.

Turning to `Cc1ccc(S(=O)(=O)CNC(=O)C(O)(O)C(F)(F)F)cc1`, the TGI with IGROV1 ovarian, in the assay on MCF7 breast, with SK-MEL-28 melanoma, in the assay with UACC-257 melanoma, with HOP-92 NSCLC and in the assay with DU-145 prostate was above 100 µM each time. Further, the TGI with OVCAR-8 ovarian, with HT29 colon, in the assay with K-562 leukemia, in the assay with SF-539 CNS, with COLO 205 colon and with LOX IMVI melanoma was above 100 µM throughout. For the same compound, the TGI in the assay on CAKI-1 renal, with SF-295 CNS, with MDA-N, in the assay with M14 melanoma, in the assay on BT-549 breast and in the assay with CCRF-CEM leukemia was above 100 µM throughout. Besides, the TGI in the assay on OVCAR-4 ovarian and in the assay with MDA-MB-231 breast was above 100 µM throughout.

As to `NC(=O)CSc1c2cc(O)ccc2nc2ccc(O)cc12`, the TGI in the assay with IGROV1 ovarian, with MCF7 breast, in the assay on SK-MEL-28 melanoma, in the assay on UACC-257 melanoma, with HOP-92 NSCLC and in the assay on DU-145 prostate was above 10 µM in each case. Further, the TGI with OVCAR-8 ovarian, in the assay with HT29 colon, with K-562 leukemia, with SF-539 CNS, in the assay on COLO 205 colon and in the assay with LOX IMVI melanoma was above 10 µM throughout. Further, the TGI in the assay with CAKI-1 renal, in the assay on SF-295 CNS, with MDA-N, in the assay on M14 melanoma, in the assay with BT-549 breast and in the assay with CCRF-CEM leukemia was above 10 µM each time. Moreover, the TGI in the assay with OVCAR-4 ovarian and in the assay on MDA-MB-231 breast was above 10 µM throughout.

`CC(Oc1ccc(Oc2cnc3ccc(Cl)cc3n2)cc1)C(=O)O` (stereo not given): the TGI in the assay with IGROV1 ovarian, with MCF7 breast, in the assay with SK-MEL-28 melanoma, in the assay on UACC-257 melanoma, in the assay with HOP-92 NSCLC and with DU-145 prostate was above 100 µM in each case. The TGI with OVCAR-8 ovarian, with HT29 colon, with K-562 leukemia, with SF-539 CNS, in the assay on COLO 205 colon and in the assay with LOX IMVI melanoma was above 100 µM each time. For the same compound, the TGI in the assay on CAKI-1 renal, in the assay on SF-295 CNS, with MDA-N, with M14 melanoma, in the assay on BT-549 breast and with CCRF-CEM leukemia was above 100 µM in each case. For the same compound, the TGI in the assay on OVCAR-4 ovarian and in the assay on MDA-MB-231 breast was above 100 µM throughout.
